Holding throughout (assay): NCI anticancer screen, dose series, 48 h
Test [1] has as its system A549.
In test [2] the test system is ACHN.
In test [3] the test system is EKVX.
The subject of test [4] is HOP-62.
The subject of test [5] is HOP-92.
The subject of test [6] is HT-29.
Test [7] relates to LOX IMVI.
Test [8] concerns MDA-MB-435.
The subject of test [9] is MDA-N.
The test system of test [10] is Malme-3M.
Test [11] concerns NCI-H226.
Test [12] concerns NCI-H460.
Test [13] deals with OVCAR-3.
Test [14] has as its system OVCAR-5.
Test [15] concerns OVCAR-8.
Test [16] has as its system PC-3.
For test [17], the system named is SK-MEL-28.
Test [18] concerns SNB-75.
Test [19] has as its system TK-10.
In test [20] the test system is U-251.

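Where inhibition never reached the appropriate level, the endpoint shown equals the highest concentration tested. Otherwise, values were interpolated linearly from a five-concentration, 48-hour dose response in 96-well plates. The concentration for 50% growth inhibition is given as GI50.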 Activity calls are given as the source filed them. No stated cut-off is given here; in the data, active = GI50 up to about 1.1 µM and inactive = higher. A value given as a limit tells only on which side of the number the result lay.

`CC(C)N1CCCOC(c2ccc([N+](=O)[O-])cc2)O1` (stereo not given): the GI50 in test [1], in test [2], in test [3], in test [4], in test [5] and in test [6] was > 100 µM (inactive) each time. For the same compound, the GI50 in [7], in [8], in test [9], in test [10], in test [11] and in test [12] was > 100 µM (inactive) throughout. In addition, the GI50 in test [13], in test [14], in [15], in [16], in test [17] and in test [18] was > 100 µM (inactive) in each case. Also, the GI50 in [19] and in test [20] was > 100 µM (inactive) in each case.
For the compound `CCOC(=O)c1cn(CC)c2ccc3ccsc3c2c1=O`, the GI50 in test [1], in test [2], in [3], in test [4], in [5] and in [6] was > 100 µM (inactive) each time. Also, the GI50 in test [7], in [8], in [9], in test [10], in test [11] and in [12] was > 100 µM (inactive) throughout. The GI50 was > 100 µM (inactive) in [13]; > 100 µM (inactive) in [14]; > 100 µM (inactive) in [15]; > 100 µM (inactive) in test [16]; > 100 µM (inactive) in test [17]; 69.5 µM (inactive) in test [18]. The GI50 is > 100 µM (inactive) in test [19] and 5.46 µM (inactive) in [20].
As to `Cn1c(=O)cc(/N=N\c2ccc(Cl)c(Cl)c2)[nH]c1=O`, the GI50 in test [1] was > 100 µM (inactive); in test [2] it was 21.2 µM (inactive); in test [3], 24.5 µM (inactive); in [4], > 100 µM (inactive); in test [5] it was 30 µM (inactive); in test [6], 19.9 µM (inactive). Also, the GI50 in [7] was 19.2 µM (inactive); in test [8], 21.1 µM (inactive); in test [9] it was 18.7 µM (inactive); in test [10] it was 16.1 µM (inactive); in test [11], > 100 µM (inactive); in [12] it was 29.9 µM (inactive). The GI50 in test [13] is 18.7 µM (inactive); in [14] it was 24.8 µM (inactive); in test [15] it was 23.4 µM (inactive); in [16], 23.3 µM (inactive); in test [17], 23.6 µM (inactive); in test [18], 49.2 µM (inactive). Further, the GI50 was 23.8 µM (inactive) in [19] and 23.3 µM (inactive) in test [20].
In the case of `COC(=O)/C=C/COCC1C2CCC(=O)C21` (stereo not given), the GI50 in [1], in [2], in test [3], in test [4], in [5] and in test [6] was > 100 µM (inactive) each time. For the same compound, the GI50 in test [7], in [8], in [9], in test [10], in [11] and in [12] was > 100 µM (inactive) each time. Further, the GI50 in [13], in test [14], in test [15], in test [16], in [17] and in [18] was > 100 µM (inactive) each time. The GI50 in [19] and in test [20] was > 100 µM (inactive) throughout.
On to `N=C(N)NS(=O)(=O)c1ccc(NCc2cccc3c(=O)c4ccc(Cl)cc4oc23)cc1`, for which the GI50 in [1] was > 6.75 µM (inactive); in test [2], 7.6 µM (inactive); in test [3], > 9.53 µM (inactive); in test [4], > 10.2 µM (inactive); in [5] it was 3.86 µM (inactive); in test [6] it was 5.71 µM (inactive). Besides, the GI50 is 4.48 µM (inactive) in test [7]; 5.04 µM (inactive) in test [8]; 5.27 µM (inactive) in test [9]; 4.59 µM (inactive) in test [10]; > 25 µM (inactive) in test [11]; 3.15 µM (inactive) in test [12]. The GI50 is > 8.47 µM (inactive) in [13]; > 10.1 µM (inactive) in test [14]; 7.52 µM (inactive) in test [15]; 1.4 µM (inactive) in [16]; > 12.2 µM (inactive) in test [17]; 3.08 µM (inactive) in test [18]. Further, the GI50 in test [19] is > 10.4 µM (inactive); in [20], 5.22 µM (inactive).
With `CCOC(=O)NC(NC(C)CC)(C(F)(F)F)C(F)(F)F` (stereo not given), the GI50 in test [1], in test [2], in test [3], in [4], in test [5] and in [6] was > 100 µM (inactive) in each case. For the same compound, the GI50 in test [7], in test [8], in [9], in [10], in [11] and in test [12] was > 100 µM (inactive) throughout. Further, the GI50 in test [13], in test [14], in [15], in [16], in test [17] and in [18] was > 100 µM (inactive) each time. Further, the GI50 in test [19] is > 100 µM (inactive); in [20], 81.5 µM (inactive).
Regarding `c1cnc2c(c1)Nc1cnncc1S2`, the GI50 in test [1] is > 100 µM (inactive); in [2], > 100 µM (inactive); in test [3], > 100 µM (inactive); in [4] it was > 100 µM (inactive); in test [5], 86.3 µM (inactive); in test [6], > 100 µM (inactive). The GI50 in test [7] was > 100 µM (inactive); in test [8], > 100 µM (inactive); in test [9] it was > 100 µM (inactive); in [10], > 100 µM (inactive); in test [11], 86.9 µM (inactive); in test [12] it was > 100 µM (inactive). Besides, the GI50 is > 100 µM (inactive) in [13]; > 100 µM (inactive) in test [14]; > 100 µM (inactive) in [15]; > 100 µM (inactive) in test [16]; > 100 µM (inactive) in test [17]; 12.2 µM (inactive) in test [18]. The GI50 in [19] and in test [20] was > 100 µM (inactive) throughout.
For `O=C1NC(c2ccccc2)N=C2Oc3ccccc3C=C12` (stereo not given), the GI50 is 1.73 µM (inactive) in test [1]; 2.87 µM (inactive) in [2]; 0.181 µM (active) in [3]; 0.543 µM (active) in test [4]; 47.2 µM (inactive) in [5]; 1.68 µM (inactive) in [6]. The GI50 in [7] was 5.12 µM (inactive); in test [8], < 0.0265 µM (active); in test [9], 0.0738 µM (active); in [10] it was 0.122 µM (active); in test [11] it was 0.579 µM (active); in [12], 0.565 µM (active). For the same compound, the GI50 in test [13] is 0.0897 µM (active); in test [14], 1.04 µM (active); in test [15], 3.47 µM (inactive); in [16] it was 0.0753 µM (active); in [17], 38.7 µM (inactive); in test [18] it was 0.547 µM (active). The figures for the GI50 in test [19] and in [20] were > 63.1 µM (inactive) and 4.21 µM (inactive), respectively.
As to `Clc1ccc(C(c2ccccc2Cl)C(Cl)Cl)cc1` (stereo not given) [MITOTANE], the GI50 is 15.1 µM (inactive) in test [1]; 14.8 µM (inactive) in test [2]; 17.3 µM (inactive) in test [3]; 18.2 µM (inactive) in test [4]; 13 µM (inactive) in [5]; 16.8 µM (inactive) in test [6]. Moreover, the GI50 in test [7] is 21.3 µM (inactive); in [8], 3.08 µM (inactive); in [9], 18 µM (inactive); in test [10], 14.1 µM (inactive); in [11], 16.5 µM (inactive); in [12] it was 17.3 µM (inactive). For the same compound, the GI50 is 15.6 µM (inactive) in [13]; 18 µM (inactive) in [14]; 20.7 µM (inactive) in test [15]; 3.39 µM (inactive) in [16]; 18.9 µM (inactive) in [17]; 15.2 µM (inactive) in test [18]. Further, the GI50 in test [19] is 20 µM (inactive); in [20], 16.6 µM (inactive).
Consider `CC(C)CC(NC(=O)C(Cc1ccccc1)NC(=O)[C@H]1CC[C@H](NC(=O)C(Cc2ccc(OC(C)(C)C)cc2)NC(=O)OC(C)(C)C)C1)C(N)=O` (stereo not given in full), for which the GI50 in test [1] is 50.9 µM (inactive); in [2], 39.8 µM (inactive); in test [3], > 100 µM (inactive); in test [4], 36.2 µM (inactive); in test [5] it was 23.8 µM (inactive); in test [6], 18.9 µM (inactive). In addition, the GI50 was 17.1 µM (inactive) in test [7]; 18.7 µM (inactive) in [8]; 19.3 µM (inactive) in test [9]; 26.4 µM (inactive) in [10]; 18.6 µM (inactive) in test [11]; 17.3 µM (inactive) in [12]. Moreover, the GI50 in test [13] is 25.9 µM (inactive); in test [14] it was 31 µM (inactive); in test [15] it was 18.4 µM (inactive); in test [16] it was 18.1 µM (inactive); in [17], 20.2 µM (inactive); in test [18], 27.8 µM (inactive). Moreover, the values for the GI50 in test [19] and in test [20] were 29.3 µM (inactive) and 14.8 µM (inactive), respectively.

The values are drawn from ChEMBL document CHEMBL1201862, “PubChem BioAssay data set” (2004).
